The values below come from patent US20200138802A1, “Aggressive Lipid Lowering Therapy in Coronary Artery Disease” (Kowa Company, Ltd., priority 2018, published 2020).

Experiment [1] is described as follows: Randomized open-label phase 4 trial of pitavastatin 4 mg/day versus 1 mg/day in Japanese patients with stable coronary artery disease. In kind it is in vivo, human. The method, then:
This study was a prospective, multicenter, randomized, open-label, blinded-endpoint, physician-initiated phase 4 trial designed to investigate whether high-dose statin therapy could reduce CV events in patients with stable CAD as compared with low-dose statin therapy. We hypothesized that aggressive lipid lowering treatment with pitavastatin 4 mg/day would reduce the incidence of the composite endpoint comprised of CV death, non-fatal myocardial infarction (MI), non-fatal ischemic stroke, and unstable angina requiring emergency hospitalization. The control group received pitavastatin 1 mg/day.
Men and women aged 20 to 80 years with clinically evident stable CAD and elevated LDL-C were eligible for this study. CAD was defined as 1) previous ACS, such as acute myocardial infarction or unstable angina; 2) a previous coronary revascularization procedure (PCI or coronary artery bypass grafting (“CABG”)); or 3) atherosclerotic CAD detected by coronary artery angiography with at least 75% stenosis in major epicardial coronary arteries (American Heart Association classification). (30) Patients with elevated LDL-C at entry were defined as (1) patients not receiving chronic lipid-lowering therapy with LDL-C≥140 mg/dL, (2) patients with LDL-C≥100 mg/dL and considered by the attending physician to need lipid-lowering therapy, or (3) patients being treated with lipid-lowering therapy.
Exclusion criteria included (1) any planned coronary revascularization procedure, (2) active malignancy, (3) contraindication for pitavastatin (hypersensitivity to pitavastatin, severe liver disease or hepatic dysfunction, concurrent cyclosporine use, or suspected or confirmed pregnancy or current breastfeeding), (4) severe congestive heart failure (ejection fraction<30% or NYHA class≥3), (5) current hemodialysis, (6) familial hypercholesterolemia, (7) current participation in another clinical trial, (8) current use of any prohibited drug (lipid-lowering drug other than pitavastatin) that could not be discontinued during the study, and (9) any other finding that would make the patient unsuitable for this study in the opinion of the investigators.
Participants were recruited at 733 hospitals in Japan. During screening visits, informed consent and baseline medical history were obtained, and a clinical examination and laboratory testing were performed. Blood samples were collected to determine fasting lipid levels and the patient's standard clinical profile. After discontinuation of all previous lipid-lowering therapies, all eligible patients started receiving treatment with pitavastatin 1 mg/day on an open-label basis for at least 1 month (run-in period). At the end of the run-in period (week 0), those patients with LDL-C levels below 120 mg/dL, measured by a central laboratory using Friedwald's formula, were eligible for randomization. Patients with prior ACS or coronary revascularization could be randomized beyond 3 months after the index event. Randomization was not allowed for patients with poor adherence (less than 50%) for the study drug during the run-in period or for patients with the primary endpoint events during the run-in period.
Patients were randomized in a 1:1 ratio to either pitavastatin 4 mg or pitavastatin 1 mg once daily. Randomized treatment assignment was stratified by 5 factors: 1) institution, 2) prior statin use, 3) age (<65 or ≥65), 4) diabetes, and 5) sex. Patients were to be followed for 3 years, and study visits were scheduled at 6 months for the first visit and every year thereafter. At each visit, information on vital signs, clinical endpoints, adverse events, and concurrent medication was collected. In addition, physical examinations and electrocardiograms were performed and blood specimens were collected at 6 months and every 12 months thereafter for lipid and other laboratory tests. […]

The conditions of experiment [2]: 4 mg of pitavastatin; cited from earlier work.

For the molecule `O=C(O)C[C@H](O)C[C@H](O)/C=C/c1c(C2CC2)nc2ccccc2c1-c1ccc(F)cc1` [pitavastatin], the “incidence rates of individual CV events: death from any cause, myocardial infarction, and coronary revascularization results” value in experiment [1] (1 mg and 4 mg pitavastatin groups, FIG. 8) is reported as “positive”. In experiment [1] (patients converted from 1 mg dose to 4 mg dose of pitavastatin, stable CAD, FIG. 2), the LDL-C entry is “statistically significant reduction”. The HDL-C result in experiment [1] (patients converted from 1 mg dose to 4 mg dose of pitavastatin, stable CAD, FIG. 3) is “numerically superior increase”. The TG result in experiment [1] (patients converted from 1 mg dose to 4 mg dose of pitavastatin, stable CAD, FIG. 4) is “statistically significant reduction”. Moreover, in experiment [1] (patients converted from 1 mg dose to 4 mg dose of pitavastatin, stable CAD, FIG. 5), the hs-CGP result was “statistically significant reduction”. Further, the “primary clinical endpoint (composite of CV death, MI, ischemic stroke and UA)” value in experiment [1] (patients converted from 1 mg dose to 4 mg dose of pitavastatin, stable CAD, FIG. 6) is given as “statistically significant reduction”. Moreover, in experiment [1] (patients converted from 1 mg dose to 4 mg dose of pitavastatin, stable CAD, FIG. 7), the “secondary clinical endpoint (primary endpoint+coronary revascularization)” value is recorded as “statistically significant reduction”. In experiment [1] (subgroup analysis, 1 mg versus 4 mg pitavastatin, FIG. 9), the “effect of LDL-C status (≥95 mg/dL or <95 mg/dL) on primary endpoint incidence rates” value is recorded as “did not affect the results”. The “reduction of LDL-C from baseline” value in experiment [2] is on record as 42.9%.
